# Measurements: ChEMBL document CHEMBL3352179, “Inhibition of O-GlcNAcase (OGA): A Potential Therapeutic Target to Treat Alzheimer's Disease” (ACS Med Chem Lett, 2014)
# Key:
# [1] = target: T1, Protein O-GlcNAcase (Rattus norvegicus, UniProt Q8VIJ5); assay: Inhibition of OGA in rat B35 cells after 16 hrs; format: cell-based
# T1 sequence (Q8VIJ5 whole entry): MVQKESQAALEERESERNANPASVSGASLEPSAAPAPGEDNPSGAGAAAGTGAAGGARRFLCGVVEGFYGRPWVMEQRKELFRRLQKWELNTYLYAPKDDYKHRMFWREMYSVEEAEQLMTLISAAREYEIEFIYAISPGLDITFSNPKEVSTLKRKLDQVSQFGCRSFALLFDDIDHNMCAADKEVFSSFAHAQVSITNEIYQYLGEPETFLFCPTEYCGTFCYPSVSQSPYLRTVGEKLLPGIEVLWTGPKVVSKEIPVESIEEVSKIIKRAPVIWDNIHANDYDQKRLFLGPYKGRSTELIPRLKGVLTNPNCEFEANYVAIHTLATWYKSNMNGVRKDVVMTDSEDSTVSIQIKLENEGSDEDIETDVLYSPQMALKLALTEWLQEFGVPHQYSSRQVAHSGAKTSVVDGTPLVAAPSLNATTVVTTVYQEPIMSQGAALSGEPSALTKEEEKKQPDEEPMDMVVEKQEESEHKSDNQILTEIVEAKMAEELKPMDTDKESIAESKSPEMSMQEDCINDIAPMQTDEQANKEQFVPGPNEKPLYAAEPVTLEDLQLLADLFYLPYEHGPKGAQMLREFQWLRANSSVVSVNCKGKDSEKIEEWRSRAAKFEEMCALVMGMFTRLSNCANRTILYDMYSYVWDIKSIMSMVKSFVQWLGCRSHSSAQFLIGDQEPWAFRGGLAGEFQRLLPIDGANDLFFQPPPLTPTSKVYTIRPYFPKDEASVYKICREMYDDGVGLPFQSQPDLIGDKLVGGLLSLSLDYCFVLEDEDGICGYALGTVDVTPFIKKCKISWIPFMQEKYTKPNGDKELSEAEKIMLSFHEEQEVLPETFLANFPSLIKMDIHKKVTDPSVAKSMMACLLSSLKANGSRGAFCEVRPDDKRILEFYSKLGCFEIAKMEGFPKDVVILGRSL
# [2] = target: T2, Protein O-GlcNAcase (Homo sapiens, UniProt O60502); assay: Inhibition of human His-tagged OGA using fluorescein mono-beta-D-([…]) glucopyranoside as substrate after 60 mins by fluorescence assay
# T2 sequence (O60502 whole entry): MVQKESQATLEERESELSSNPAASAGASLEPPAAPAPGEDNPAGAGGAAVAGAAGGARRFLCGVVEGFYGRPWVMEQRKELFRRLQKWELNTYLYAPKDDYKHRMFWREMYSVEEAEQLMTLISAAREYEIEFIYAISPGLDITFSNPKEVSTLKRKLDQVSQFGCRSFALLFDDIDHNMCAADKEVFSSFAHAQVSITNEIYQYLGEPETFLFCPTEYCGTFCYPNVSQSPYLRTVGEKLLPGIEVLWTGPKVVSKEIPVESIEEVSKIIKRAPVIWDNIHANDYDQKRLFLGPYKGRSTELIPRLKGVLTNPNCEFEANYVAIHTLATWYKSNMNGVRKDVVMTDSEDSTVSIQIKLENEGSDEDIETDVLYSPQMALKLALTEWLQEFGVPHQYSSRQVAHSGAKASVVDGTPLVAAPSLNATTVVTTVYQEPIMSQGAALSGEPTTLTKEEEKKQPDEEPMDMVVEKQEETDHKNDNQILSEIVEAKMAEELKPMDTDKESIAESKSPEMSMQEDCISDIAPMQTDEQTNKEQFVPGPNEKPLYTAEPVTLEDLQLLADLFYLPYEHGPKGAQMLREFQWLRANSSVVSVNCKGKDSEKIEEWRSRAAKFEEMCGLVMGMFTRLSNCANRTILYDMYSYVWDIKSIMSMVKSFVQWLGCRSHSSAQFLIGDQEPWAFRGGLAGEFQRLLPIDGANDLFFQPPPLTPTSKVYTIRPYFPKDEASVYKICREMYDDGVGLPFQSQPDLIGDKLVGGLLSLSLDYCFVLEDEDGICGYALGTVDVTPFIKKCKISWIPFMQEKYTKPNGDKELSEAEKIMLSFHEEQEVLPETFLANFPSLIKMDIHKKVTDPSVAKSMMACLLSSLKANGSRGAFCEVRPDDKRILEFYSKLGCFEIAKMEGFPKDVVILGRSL
smiles,measurement,setting,value
COC(=O)Nc1ncc(CN2CCC(c3ccccc3)CC2)s1,EC50,[1],10000 nM
same,IC50,[2],1000 nM
CC(=O)Nc1ncc(CN2CCC(c3ccccc3)CC2)s1,EC50,[1],200 nM
same,IC50,[2],< 200 nM
CC(=O)Nc1ncc(CN2CCC(c3cccc(C)c3)CC2)s1,EC50,[1],< 200 nM
same,IC50,[2],< 200 nM
CC(=O)Nc1ncc(CN2CCC(F)(c3ccccc3)CC2)s1,EC50,[1],1000 nM
same,IC50,[2],1000 nM
